From the NIST ThermoML archive (doi:10.1021/je800579j)
Numbers after ± are expanded uncertainties.

Assay: refractive index (Na D-line) (dimensionless); xn = mol fraction of the nth substance listed
Conditions: Liquid, Standard Abbe refractometry

Cc1ccc(C)cc1 [1,4-dimethylbenzene] + C1COCCO1 showed a refractive index (288.15 K, x2 = 0) of 1.4985 ± 0.0007, a refractive index (288.15 K, x2 = 0.0716) of 1.4937 ± 0.0007 and a refractive index (288.15 K, x2 = 0.1445) of 1.4887 ± 0.0007. For the same compound, the refractive index (288.15 K, x2 = 0.2132) was 1.4839 ± 0.0007, the refractive index (288.15 K, x2 = 0.2871) was 1.4787 ± 0.0007 and the refractive index (288.15 K, x2 = 0.3582) was 1.4736 ± 0.0007. The refractive index (288.15 K, x2 = 0.4358) was 1.468 ± 0.0006, the refractive index (288.15 K, x2 = 0.5042) was 1.4629 ± 0.0006 and the refractive index (288.15 K, x2 = 0.5846) was 1.4569 ± 0.0006. It also gave a refractive index (288.15 K, x2 = 0.6543) of 1.4516 ± 0.0006, a refractive index (288.15 K, x2 = 0.7249) of 1.4462 ± 0.0006 and a refractive index (288.15 K, x2 = 0.7923) of 1.441 ± 0.0006. It also gave a refractive index (288.15 K, x2 = 0.8623) of 1.4355 ± 0.0006, a refractive index (288.15 K, x2 = 0.9311) of 1.4301 ± 0.0006 and a refractive index (293.15 K, x2 = 0) of 1.4959 ± 0.0007. For the same compound, the refractive index (293.15 K, x2 = 0.0716) was 1.4911 ± 0.0007, the refractive index (293.15 K, x2 = 0.1445) was 1.4861 ± 0.0007 and the refractive index (293.15 K, x2 = 0.2132) was 1.4813 ± 0.0007. For the same compound, the refractive index (293.15 K, x2 = 0.2871) was 1.4761 ± 0.0007, the refractive index (293.15 K, x2 = 0.3582) was 1.471 ± 0.0007 and the refractive index (293.15 K, x2 = 0.4358) was 1.4655 ± 0.0007. The refractive index (293.15 K, x2 = 0.5042) was 1.4604 ± 0.0006, the refractive index (293.15 K, x2 = 0.5846) was 1.4544 ± 0.0006 and the refractive index (293.15 K, x2 = 0.6543) was 1.4492 ± 0.0006. For the same compound, the refractive index (293.15 K, x2 = 0.7249) was 1.4438 ± 0.0006, the refractive index (293.15 K, x2 = 0.7923) was 1.4386 ± 0.0006 and the refractive index (293.15 K, x2 = 0.8623) was 1.4332 ± 0.0006. It also gave a refractive index (293.15 K, x2 = 0.9311) of 1.4279 ± 0.0006, a refractive index (298.15 K, x2 = 0) of 1.4933 ± 0.0007 and a refractive index (298.15 K, x2 = 0.0716) of 1.4884 ± 0.0007. The refractive index (298.15 K, x2 = 0.1445) was 1.4834 ± 0.0007, the refractive index (298.15 K, x2 = 0.2132) was 1.4786 ± 0.0007 and the refractive index (298.15 K, x2 = 0.2871) was 1.4734 ± 0.0007. The refractive index (298.15 K, x2 = 0.3582) was 1.4684 ± 0.0007, the refractive index (298.15 K, x2 = 0.4358) was 1.4629 ± 0.0007 and the refractive index (298.15 K, x2 = 0.5042) was 1.4579 ± 0.0006. For the same compound, the refractive index (298.15 K, x2 = 0.5846) was 1.452 ± 0.0006, the refractive index (298.15 K, x2 = 0.6543) was 1.4467 ± 0.0006 and the refractive index (298.15 K, x2 = 0.7249) was 1.4414 ± 0.0006. For the same compound, the refractive index (298.15 K, x2 = 0.7923) was 1.4362 ± 0.0006, the refractive index (298.15 K, x2 = 0.8623) was 1.4309 ± 0.0006 and the refractive index (298.15 K, x2 = 0.9311) was 1.4256 ± 0.0006. The refractive index (303.15 K, x2 = 0) was 1.4907 ± 0.0007, the refractive index (303.15 K, x2 = 0.0716) was 1.4858 ± 0.0007 and the refractive index (303.15 K, x2 = 0.1445) was 1.4808 ± 0.0007. The refractive index (303.15 K, x2 = 0.2132) was 1.476 ± 0.0007, the refractive index (303.15 K, x2 = 0.2871) was 1.4708 ± 0.0007 and the refractive index (303.15 K, x2 = 0.3582) was 1.4658 ± 0.0007. The refractive index (303.15 K, x2 = 0.4358) was 1.4604 ± 0.0007, the refractive index (303.15 K, x2 = 0.5042) was 1.4554 ± 0.0006 and the refractive index (303.15 K, x2 = 0.5846) was 1.4495 ± 0.0006. It also gave a refractive index (303.15 K, x2 = 0.6543) of 1.4443 ± 0.0006, a refractive index (303.15 K, x2 = 0.7249) of 1.439 ± 0.0006 and a refractive index (303.15 K, x2 = 0.7923) of 1.4338 ± 0.0006. For the same compound, the refractive index (303.15 K, x2 = 0.8623) was 1.4286 ± 0.0006, the refractive index (303.15 K, x2 = 0.9311) was 1.4234 ± 0.0006 and the refractive index (308.15 K, x2 = 0) was 1.4881 ± 0.0007. For the same compound, the refractive index (308.15 K, x2 = 0.0716) was 1.4831 ± 0.0007, the refractive index (308.15 K, x2 = 0.1445) was 1.4781 ± 0.0007 and the refractive index (308.15 K, x2 = 0.2132) was 1.4733 ± 0.0007. It also gave a refractive index (308.15 K, x2 = 0.2871) of 1.4681 ± 0.0007, a refractive index (308.15 K, x2 = 0.3582) of 1.4632 ± 0.0007 and a refractive index (308.15 K, x2 = 0.4358) of 1.4578 ± 0.0007. The refractive index (308.15 K, x2 = 0.5042) was 1.4529 ± 0.0007, the refractive index (308.15 K, x2 = 0.5846) was 1.447 ± 0.0006 and the refractive index (308.15 K, x2 = 0.6543) was 1.4418 ± 0.0006. For the same compound, the refractive index (308.15 K, x2 = 0.7249) was 1.4365 ± 0.0006, the refractive index (308.15 K, x2 = 0.7923) was 1.4314 ± 0.0006 and the refractive index (308.15 K, x2 = 0.8623) was 1.4262 ± 0.0006. For the same compound, the refractive index (308.15 K, x2 = 0.9311) was 1.4211 ± 0.0006, the refractive index (313.15 K, x2 = 0) was 1.4855 ± 0.0007 and the refractive index (313.15 K, x2 = 0.0716) was 1.4805 ± 0.0007. For the same compound, the refractive index (313.15 K, x2 = 0.1445) was 1.4754 ± 0.0007, the refractive index (313.15 K, x2 = 0.2132) was 1.4706 ± 0.0007 and the refractive index (313.15 K, x2 = 0.2871) was 1.4655 ± 0.0007. It also gave a refractive index (313.15 K, x2 = 0.3582) of 1.4606 ± 0.0007, a refractive index (313.15 K, x2 = 0.4358) of 1.4552 ± 0.0007 and a refractive index (313.15 K, x2 = 0.5042) of 1.4503 ± 0.0007. For the same compound, the refractive index (313.15 K, x2 = 0.5846) was 1.4445 ± 0.0006, the refractive index (313.15 K, x2 = 0.6543) was 1.4394 ± 0.0006 and the refractive index (313.15 K, x2 = 0.7249) was 1.4341 ± 0.0006. For the same compound, the refractive index (313.15 K, x2 = 0.7923) was 1.429 ± 0.0006, the refractive index (313.15 K, x2 = 0.8623) was 1.4238 ± 0.0006 and the refractive index (313.15 K, x2 = 0.9311) was 1.4188 ± 0.0006. The refractive index (318.15 K, x2 = 0) was 1.483 ± 0.0006, the refractive index (318.15 K, x2 = 0.0716) was 1.4778 ± 0.0007 and the refractive index (318.15 K, x2 = 0.1445) was 1.4727 ± 0.0007. It also gave a refractive index (318.15 K, x2 = 0.2132) of 1.468 ± 0.0007, a refractive index (318.15 K, x2 = 0.2871) of 1.4628 ± 0.0007 and a refractive index (318.15 K, x2 = 0.3582) of 1.458 ± 0.0007. For the same compound, the refractive index (318.15 K, x2 = 0.4358) was 1.4526 ± 0.0007, the refractive index (318.15 K, x2 = 0.5042) was 1.4478 ± 0.0007 and the refractive index (318.15 K, x2 = 0.5846) was 1.442 ± 0.0007. It also gave a refractive index (318.15 K, x2 = 0.6543) of 1.4369 ± 0.0007, a refractive index (318.15 K, x2 = 0.7249) of 1.4316 ± 0.0006 and a refractive index (318.15 K, x2 = 0.7923) of 1.4266 ± 0.0006. The refractive index (318.15 K, x2 = 0.8623) was 1.4214 ± 0.0006 and the refractive index (318.15 K, x2 = 0.9311) was 1.4165 ± 0.0006.
